Source: PubChem BioAssay (NCI)
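Exposure lasted 48 hours, with cells grown in 96-well plates and compounds tested at five concentrations. TGI: concentration producing complete growth inhibition.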

How the values were obtained:
Experiment in all cases: NCI tumour cell line growth inhibition, 48 h
[1] = system: TK-10 renal
[2] = system: HCC-2998 colon
[3] = system: HCT-15 colon
[4] = system: MALME-3M melanoma
[5] = system: SK-OV-3 ovarian
[6] = system: HCT-116 colon
[7] = system: MCF7 breast
[8] = system: HOP-92 NSCLC
[9] = system: K-562 leukemia
[10] = system: CAKI-1 renal
[11] = system: LOX IMVI melanoma
[12] = system: 786-0 renal
[13] = system: KM12 colon
[14] = system: UO-31 renal
[15] = system: COLO 205 colon
[16] = system: SF-539 CNS
[17] = system: RXF 393 renal
[18] = system: SF-295 CNS
[19] = system: SF-268 CNS
[20] = system: U251 CNS
[21] = system: MDA-MB-231 breast
[22] = system: NCI-H226 lung
[23] = system: UACC-257 melanoma
[24] = system: OVCAR-5 ovarian
[25] = system: MDA-N
[26] = system: OVCAR-8 ovarian
[27] = system: PC-3 prostate
[28] = system: SN12C renal
[29] = system: SK-MEL-5 melanoma
[30] = system: M14 melanoma
[31] = system: EKVX NSCLC
[32] = system: NCI-H460 lung
[33] = system: SNB-19 CNS
[34] = system: SNB-75 CNS
[35] = system: CCRF-CEM leukemia
[36] = system: UACC-62 melanoma
[37] = system: OVCAR-4 ovarian
[38] = system: IGROV1 ovarian
[39] = system: NCI/ADR-RES ovarian
[40] = system: NCI-H23 lung
[41] = system: DU-145 prostate
[42] = system: SR leukemia
[43] = system: HT29 colon
[44] = system: SK-MEL-2 melanoma
[45] = system: A549 NSCLC
[46] = system: ACHN renal
[47] = system: HOP-62 NSCLC
[48] = system: SK-MEL-28 melanoma
[49] = system: SW-620 colon
[50] = system: BT-549 breast
[51] = system: RPMI-8226 leukemia
[52] = system: OVCAR-3 ovarian
[53] = system: NCI-H522 lung
[54] = system: MDA-MB-435
[55] = system: MOLT-4 leukemia

Measured: TGI

COC(=O)[C@@]12CCCC(=O)[C@@H]1[C@H]1CCC[C@H]12
> 100 µM: [1] | [2] | [3] | [4] | [5] | [6] | [7] | [8] | [9] | [10] | [11] | [12] | [13] | [14] | [15] | [16] | [17] | [18] | [19] | [20] | [21] | [22] | [23] | [24] | [25] | [26] | [27] | [28] | [29] | [30] | [31] | [32] | [33] | [34] | [35] | [36] | [37] | [38] | [39] | [40] | [41] | [42] | [43] | [44] | [45] | [46] | [47] | [48] | [49] | [50] | [51] | [52] | [53] | [54] | [55]
